Assay results published in ChEMBL document CHEMBL1149955, “The discovery and synthesis of 2-biphenylcarbapenems active against methicillin resistant staphylococci” (1995).
Converted amounts (≈) assume the structure as drawn.

What was measured:
Assay type in all cases: functional
Staphylococcus aureus [1] = assay: Antibacterial activity against Methicillin-resistant Staphylococcus aureus (1)
Staphylococcus aureus [2] = assay: Compound was evaluated for anti-methicillin-resistant activity against methicillin-resistant Staphylococcus aureus CL 3025
Klebsiella sp. [3] = assay: Antibacterial activity against Klebsiella species. (5)
Serratia [4] = assay: Antibacterial activity against Serratia species. (2)
Staphylococcus aureus [5] = assay: Compound was evaluated for anti-methicillin-resistant activity against methicillin-resistant Staphylococcus aureus CL 3033
Staphylococcus aureus [6] = assay: Compound was evaluated for anti-methicillin-resistant activity against methicillin-resistant Staphylococcus aureus CL 792
Staphylococcus aureus [7] = assay: Compound was evaluated for anti-methicillin-resistant activity against methicillin-resistant Staphylococcus aureus CL 1991
Staphylococcus sp. [8] = assay: Compound was evaluated for anti-methicillin-resistant activity against methicillin-resistant coagulase-negative Staphylococci CL 227
Staphylococcus aureus [9] = assay: Compound was evaluated for anti-methicillin-resistant activity against methicillin-resistant Staphylococcus aureus CL 1990
Staphylococcus sp. [10] = assay: Compound was evaluated for anti-methicillin-resistant activity against methicillin-resistant coagulase-negative Staphylococci CL 171
[11] = target: T1, Dipeptidase 1 (Sus scrofa) (UniProt P22412); assay: DHP-I susceptibility relative to imipenem
T1 sequence (whole entry): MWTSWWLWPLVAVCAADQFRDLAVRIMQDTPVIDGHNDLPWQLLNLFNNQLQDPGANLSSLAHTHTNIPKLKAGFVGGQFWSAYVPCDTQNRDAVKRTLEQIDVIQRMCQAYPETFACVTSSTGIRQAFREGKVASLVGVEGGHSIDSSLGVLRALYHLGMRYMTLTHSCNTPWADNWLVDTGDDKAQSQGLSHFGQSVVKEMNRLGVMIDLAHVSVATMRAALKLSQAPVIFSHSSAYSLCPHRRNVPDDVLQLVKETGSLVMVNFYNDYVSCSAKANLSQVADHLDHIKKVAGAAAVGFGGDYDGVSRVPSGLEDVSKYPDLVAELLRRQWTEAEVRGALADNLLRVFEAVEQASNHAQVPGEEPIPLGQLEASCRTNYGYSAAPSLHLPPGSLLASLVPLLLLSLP

Enterococcus sp. [12] = assay: Antibacterial activity against Enterococcus species. (3)
Staphylococcus sp. [13] = assay: Compound was evaluated for anti-methicillin-resistant activity against methicillin-resistant coagulase-negative Staphylococci
Staphylococcus aureus [14] = assay: Compound was evaluated for anti-methicillin-resistant activity against methicillin-resistant Staphylococcus aureus CL 1983
Staphylococcus aureus [15] = assay: Compound was evaluated for anti-methicillin-resistant activity against methicillin-resistant Staphylococcus aureus CL 714
Staphylococcus sp. [16] = assay: Compound was evaluated for anti-methicillin-resistant activity against methicillin-resistant coagulase-negative Staphylococci CL 546
Escherichia coli [17] = assay: Antibacterial activity against Escherichia coli (5)
Staphylococcus aureus [18] = assay: Antibacterial activity against Methicillin-sensitive Staphylococcus aureus (4)
Staphylococcus aureus [19] = assay: Compound was evaluated for anti-methicillin-resistant activity against methicillin-resistant Staphylococcus aureus CL 3043
Staphylococcus aureus [20] = assay: Compound was evaluated for anti-methicillin-resistant activity against methicillin-resistant Staphylococcus aureus
Staphylococcus sp. [21] = assay: Compound was evaluated for anti-methicillin-resistant activity against methicillin-resistant coagulase-negative Staphylococci CL 202
Pseudomonas aeruginosa [22] = assay: Antibacterial activity against Pseudomonas aeruginosa (5 )
Staphylococcus aureus [23] = assay: Compound was evaluated for anti-methicillin-resistant activity against methicillin-resistant Staphylococcus aureus CL 3031
Staphylococcus aureus [24] = assay: Compound was evaluated for anti-methicillin-resistant activity against methicillin-resistant Staphylococcus aureus CL 1989
Staphylococcus aureus [25] = assay: Compound was evaluated for anti-methicillin-resistant activity against methicillin-resistant Staphylococcus aureus CL 1985
Enterobacter sp. [26] = assay: Antibacterial activity against Enterobacter species. (6)
Proteus [27] = assay: Antibacterial activity against Proteus species. (5)
Staphylococcus aureus [28] = assay: Compound was evaluated for anti-methicillin-resistant activity against methicillin-resistant Staphylococcus aureus CL 1395
Enterococcus sp. [29] = assay: Relative potency was calculated against Enterococcus species. (3) by dividing the species index of Imipenem by the species index of the test compound
Klebsiella sp. [30] = assay: Relative potency was calculated against Klebsiella species. (5) by dividing the species index of Imipenem by the species index of the test compound
Enterobacter sp. [31] = assay: Relative potency was calculated against Enterobacter species. (6) by dividing the species index of Imipenem by the species index of the test compound
Staphylococcus aureus [32] = assay: Relative potency was calculated against Methicillin-sensitive Staphylococcus aureus (4) by dividing the species index of Imipenem by the species index of the test compound
Serratia [33] = assay: Relative potency was calculated against Serratia species. (2) by dividing the species index of Imipenem by the species index of the test compound
Staphylococcus aureus [34] = assay: Relative potency was calculated against Methicillin-resistant Staphylococcus aureus (1) by dividing the species index of Imipenem by the species index of the test compound
Escherichia coli [35] = assay: Relative potency was calculated against Escherichia coli (5) by dividing the species index of Imipenem by the species index of the test compound
Proteus [36] = assay: Relative potency was calculated against Proteus species. (5) by dividing the species index of Imipenem by the species index of the test compound
Pseudomonas aeruginosa [37] = assay: Relative potency was calculated against Pseudomonas aeruginosa (5 ) by dividing the species index of Imipenem by the species index of the test compound

SMILES	MIC (Staphylococcus aureus [2])	MIC (Staphylococcus aureus [5])	MIC (Staphylococcus aureus [6])	MIC (Staphylococcus aureus [7])	MIC (Staphylococcus sp. [8])	MIC (Staphylococcus aureus [9])	MIC (Staphylococcus sp. [10])	Susceptibility [11]	MIC50 (Staphylococcus sp. [13])	MIC90 (Staphylococcus sp. [13])	MIC (Staphylococcus aureus [14])	MIC (Staphylococcus aureus [15])	MIC (Staphylococcus sp. [16])	MIC (Staphylococcus aureus [19])	MIC50 (Staphylococcus aureus [20])	MIC90 (Staphylococcus aureus [20])	MIC (Staphylococcus sp. [21])	MIC (Staphylococcus aureus [23])	MIC (Staphylococcus aureus [24])	MIC (Staphylococcus aureus [25])	also measured
C[C@@H](O)[C@H]1C(=O)N2C(C(=O)O)=C(SCCNC=N)C[C@H]12 [IMIPENEM ANHYDROUS]	2 µg/mL (≈ 6.68 µM)	128 µg/mL (≈ 428 µM)	32 µg/mL (≈ 107 µM)	1 µg/mL (≈ 3.34 µM)	64 µg/mL (≈ 214 µM)	4 µg/mL (≈ 13.4 µM)	> 128 µg/mL	1	64 µg/mL (≈ 214 µM)	> 128 µg/mL	1 µg/mL (≈ 3.34 µM)	32 µg/mL (≈ 107 µM)	64 µg/mL (≈ 214 µM)	16 µg/mL (≈ 53.4 µM)	4 µg/mL (≈ 13.4 µM)	64 µg/mL (≈ 214 µM)	> 128 µg/mL	32 µg/mL (≈ 107 µM)	2 µg/mL (≈ 6.68 µM)	1 µg/mL (≈ 3.34 µM)	MIC (Staphylococcus aureus [1]): 33 µg/mL (≈ 110 µM); MIC (Klebsiella sp. [3]): 0.29 µg/mL (≈ 0.969 µM); MIC (Serratia [4]): 0.29 µg/mL (≈ 0.969 µM); MIC (Enterococcus sp. [12]): 1.8 µg/mL (≈ 6.01 µM); MIC (Escherichia coli [17]): 0.19 µg/mL (≈ 0.635 µM); MIC (Staphylococcus aureus [18]): 0.01 µg/mL (≈ 0.0334 µM); MIC (Pseudomonas aeruginosa [22]): 0.36 µg/mL (≈ 1.2 µM); MIC (Enterobacter sp. [26]): 0.18 µg/mL (≈ 0.601 µM); MIC (Proteus [27]): 0.78 µg/mL (≈ 2.61 µM); MIC (Staphylococcus aureus [28]): 64 µg/mL (≈ 214 µM)
C[C@@H](O)[C@H]1C(=O)N2C(C(=O)[O-])=C(c3ccc(-c4ccc(C[n+]5ccc(N(C)C)cc5)cc4)cc3)C[C@H]12								0.46													Relative potency (Enterococcus sp. [29]): 2; Relative potency (Klebsiella sp. [30]): 0.04; Relative potency (Enterobacter sp. [31]): 0.12; Relative potency (Staphylococcus aureus [32]): 0.16; Relative potency (Serratia [33]): 0.26; Relative potency (Staphylococcus aureus [34]): 3.9; Relative potency (Escherichia coli [35]): 0.31; Relative potency (Proteus [36]): 0.44; Relative potency (Pseudomonas aeruginosa [37]): 0.013
CN[C@H](CC(C)C)C(=O)N[C@H]1C(=O)N[C@@H](CC(N)=O)C(=O)N[C@H]2C(=O)N[C@H]3C(=O)N[C@H](C(=O)N[C@H](C(=O)O)c4cc(O)cc(O)c4-c4cc3ccc4O)[C@H](O)c3ccc(c(Cl)c3)Oc3cc2cc(c3O[C@@H]2O[C@H](CO)[C@@H](O)[C@H](O)[C@H]2O[C@H]2C[C@](C)(N)[C@H](O)[C@H](C)O2)Oc2ccc(cc2Cl)[C@H]1O [VANCOMYCIN]					2 µg/mL (≈ 1.38 µM)		8 µg/mL (≈ 5.52 µM)		4 µg/mL (≈ 2.76 µM)	8 µg/mL (≈ 5.52 µM)			4 µg/mL (≈ 2.76 µM)		1 µg/mL (≈ 0.69 µM)	2 µg/mL (≈ 1.38 µM)	8 µg/mL (≈ 5.52 µM)				
C[C@@H](O)[C@H]1C(=O)N2C(C(=O)[O-])=C(c3cccc(C[n+]4ccccc4N)c3)C[C@H]12								0.11													Relative potency (Enterococcus sp. [29]): 12.9; Relative potency (Klebsiella sp. [30]): 1.1; Relative potency (Enterobacter sp. [31]): 3; Relative potency (Staphylococcus aureus [32]): 0.5; Relative potency (Serratia [33]): 4.4; Relative potency (Staphylococcus aureus [34]): 2; Relative potency (Escherichia coli [35]): 1.7; Relative potency (Proteus [36]): 4.2; Relative potency (Pseudomonas aeruginosa [37]): 0.02
COc1cccc(OC)c1C(=O)N[C@@H]1C(=O)N2[C@@H]1SC(C)(C)[C@@H]2C(=O)[O-].[Na+]	64 µg/mL	> 512 µg/mL	512 µg/mL	64 µg/mL	512 µg/mL	128 µg/mL	> 512 µg/mL		> 512 µg/mL	> 512 µg/mL	64 µg/mL	512 µg/mL	> 512 µg/mL	128 µg/mL	128 µg/mL	512 µg/mL	> 512 µg/mL	256 µg/mL	64 µg/mL	64 µg/mL	MIC (Staphylococcus aureus [28]): 512 µg/mL
C[C@@H](O)[C@H]1C(=O)N2C(C(=O)[O-])=C(c3cccc(-c4ccc(C[n+]5ccccc5N)cc4)c3)C[C@H]12	1 µg/mL (≈ 2.2 µM)	2 µg/mL (≈ 4.39 µM)	1 µg/mL (≈ 2.2 µM)	1 µg/mL (≈ 2.2 µM)	2 µg/mL (≈ 4.39 µM)	1 µg/mL (≈ 2.2 µM)	4 µg/mL (≈ 8.78 µM)	0.04	2 µg/mL (≈ 4.39 µM)	4 µg/mL (≈ 8.78 µM)	0.5 µg/mL (≈ 1.1 µM)	2 µg/mL (≈ 4.39 µM)	2 µg/mL (≈ 4.39 µM)	1 µg/mL (≈ 2.2 µM)	1 µg/mL (≈ 2.2 µM)	2 µg/mL (≈ 4.39 µM)	2 µg/mL (≈ 4.39 µM)	2 µg/mL (≈ 4.39 µM)	0.5 µg/mL (≈ 1.1 µM)	1 µg/mL (≈ 2.2 µM)	Relative potency (Enterococcus sp. [29]): 6.2; Relative potency (Klebsiella sp. [30]): 0.04; Relative potency (Enterobacter sp. [31]): 0.04; Relative potency (Staphylococcus aureus [32]): 0.43; Relative potency (Serratia [33]): 0.11; Relative potency (Staphylococcus aureus [34]): 154; Relative potency (Escherichia coli [35]): 0.11; Relative potency (Proteus [36]): 0.38; Relative potency (Pseudomonas aeruginosa [37]): 0.01; MIC (Staphylococcus aureus [28]): 2 µg/mL (≈ 4.39 µM)
